Results from patent US20120195986A1, “PREVENTING OR TREATING PERIODONTAL DISEASES BY HERBAL EXTRACT” (priority 2009, published 2012).

Tested on: male ICR mice
Assay: In vivo anti-inflammatory activity (croton oil-induced ear inflammation, ear thickness)
Set-up: species or system mouse
Conditions: 20 mg/kg orally (positive control)
Method: In order to evaluate in vivo anti-inflammatory activity of the combined extract prepared in Preparation Examples 4 to 7 showing improved osteoblast proliferation and anti-inflammatory activity in the above Experimental Examples 1 and 2 and single extract in Examples 1.1 and 1.2, Hee et. al.'s method was used for the evaluation (Kor J. Pharmacogn. 25(4), 363˜367, 1994, Arch. Pharm. Res. 16(1), 18˜24, 1993.), and the result is shown in Table 2. In Table 2, 20 mg/kg was administered for positive control (Indomethacin, Sigma) and 200 mg/kg was administered for the test groups orally. Dose dependent anti-inflammatory activity was evaluated for the Example 5 with the highest activity, and the result is shown in Table 3. The thickness of ear was measured by using a thickness gauge (model H, Peacock, Japan) for male ICR mice (6 weeks, Samtaco Biokorea) before treating with the formulation. The control and test drug was administered orally, and the inflammation was induced 1 hour after the administration by smearing 10 uL of inflammation inducing material (2.5% croton oil, sigma) dissolved in acetone on the inner and outer ear after immobilizing the mice. In 5 hours, the mice were sacrificed by cervical dislocation and the thickness of the right ear was measured.

COc1ccc2c(c1)c(CC(=O)O)c(C)n2C(=O)c1ccc(Cl)cc1 [Indomethacin]
Anti-inflammatory activity (%): 50%
